From patent US5348956A, “Substituted cyclopropylamino-1,3,5-triazines” (UCB S.A., priority 1991, dated 1994)
Where two headings read alike, the source gives them in different places.

How the values were obtained:
[1] = tested on: anaphylactic release of histamine, guinea-pig lung sections; experiment: potentiation of the inhibition of anaphylactic histamine release by isoprenaline; type: cell-based, Dunkin-Hartley guinea-pigs; details: with isoprenaline 10^-7 mole per liter
Description: (§1) Dunkin-Hartley guinea-pigs which are first passively sensitized by an intravenous injection of 1 ml of isologous antiovalbumin serum are used. Twenty-four hours after the injection, the lungs are then perfused with a Tyrode buffer to evacuate the blood, and then removed and cut into sections of 1 mm. These sections are divided up into test tubes (3 sections per tube) to give 10 experimental groups of lung sections per guinea-pig. A "positive" control group of lung sections is stimulated by addition of an ovalbumin solution (0.1 mg/ml) to induce the anaphylactic release of histamine and serves to determine the maximum amount of histamine (100%) which can be released. A "negative" control group which is not stimulated by ovalbumin serves to determine the naturally released amount of histamine (spontaneous release). In three other groups, the lung sections are incubated at 37° C. for 30 minutes in the ovalbumin solution in the presence of three different doses of the compound to be tested (one dose per group). […] At this dose, isoprenaline inhibits the release of histamine by 30 to 40%, which is verified on a control group treated only with isoprenaline alone at this dose. In addition, a supplementary control group which is not stimulated by ovalbumin is used to detect a possible spontaneous release of histamine by the highest dose of the compound tested. In each group, the histamine released in the incubation medium is measured by spectrofluorometry (D. P. EVANS et al., Life Sci., 12, (1973), 327-336).

PMN granulocytes = experiment: inhibition of the stimulation of PMN granulocytes (chemiluminescence); type: cell-based, Rat; details: Rattus norvegicus; 10^-6 mole/l; FMLP 3.2×10^-7 mole/liter; read-out: Residual chemiluminescence
Description: Polymorphonuclear neutrophil granulocytes (PMN) are cells which are mobilized during inflammatory phenomena and which can be stimulated by various compounds, such as, for example, formylmethionyl-leucylphenylalanine (FMLP) or prostaglandins E (PGE1). The PMN granulocytes respond to these extracellular stimuli with an activation of the oxygen metabolism with release of toxic oxygenated metabolites. An excessive response of the PMN granulocytes may be the cause of a painful inflammation and is also accompanied by a reduction in the level of cyclic adenosine monophosphate (cAMP) in these granulocytes. Consequently, compounds which inhibit the respiratory burst of PMN granulocytes or which increase the level of cAMP can be regarded as very important in the treatment of arthritis and asthma. […] Rat PMN granulocytes (5×10^6 /ml) are preincubated in a phosphate buffer ([…], pH 7.4), containing luminol at a concentration of 10^-5 mole per liter, for 15 minutes at 37° C. and then for 5 minutes in the presence of the compound to be treated at a concentration of 10^-6 mole/liter. […] The luminescence which results from the stimulation is measured by means of an LKB 1251 luminometer according to the method of […] and […] (Infection and Immunology, 37, (1982), 34-39). An experimental cycle lasts 38 seconds. The reaction is repeated 9 times for each compound to be tested and the average of the results obtained is calculated.

[2] = tested on: bronchospasm induced by histamine; experiment: bronchospasmolytic activity (Konzett and Roessler), bronchospasm induced by histamine; type: in vivo, Dunkin-Hartley guinea-pig; details: Cavia porcellus; intravenous; histamine-induced bronchospasm; read-out: Doses (ID50), Histamine
Description: (§2) This activity was measured in the Dunkin-Hartley guinea-pig by the method of H. KONZETT and […] (Naunyn Schmiedebergs Arch. exp. Path. […] The anesthetized (urethane) and curarized (gallamine) guinea-pig is placed under assisted respiration. The endotracheal pressure is recorded. […] The compound to be tested is also administered intravenously two minutes before the administration of the spasmogen and then in 3 to 4 cumulative doses in increasing amounts at intervals of 15 minutes. Six animals per compound to be tested and per spasmogen are used.

toxicity, Irwin's test = type: in vivo; details: i.p.; death of two animals out of three within 48 hours
Description: Progressive doses of the compound to be tested are administered intraperitoneally to groups of three mice until the lethal dose is reached (dose which causes the death of two animals out of three within 48 hours).

[3] = tested on: bronchospasm induced by serotonin; experiment: bronchospasmolytic activity (Konzett and Roessler), bronchospasm induced by serotonin; type: in vivo, Dunkin-Hartley guinea-pig; details: Cavia porcellus; intravenous; serotonin-induced bronchospasm; read-out: Doses (ID50), Serotonin
Description: as §2

[4] = tested on: amnesia induced by scopolamine; experiment: multiple-trial passive avoidance: mnemic retention, amnesia induced by scopolamine
Description: To this end, the method of multiple-trial passive avoidance has been used. […] The test is carried out on male Sprague-Dawley rats (160-200 g). which are kept in standard cages throughout the experiment. The apparatus used is a transparent square cage with 35 cm sides and 25 cm high, fitted with a grid floor which can be electrified. A rubber insulating mat (10×17 cm) is placed on the floor in one of the corners of the cage.
Each animal is subjected to four tests at times 0, 4, 24 and 28 hours. In the first test (time 0), the animal is placed on the rubber mat and the time which it takes to decide to leave this position to explore the cage is recorded. After 20 seconds of exploration, the rat receives an electric shock (3 seconds duration) in the paws, causing an escape reaction. The rat is immediately removed from the apparatus and replaced in its original cage. In the course of the three subsequent tests (times: 4, 24 and 28 hours), the animal is replaced on the rubber mat and the time taken to leave this position is recorded. As soon as the four paws of the animal rest on the grid, it receives an electric shock and is removed immediately from the apparatus.
At the start of the experiment, the rats are divided into 4 homogeneous groups of 15 animals. Thirty minutes before each test, each group of animals is subjected to a predetermined treatment:
Groups 1 and 2 are used in the first experiment (learning) and groups 3 and 4 in the second experiment (mnemic retention).
The differences found are analyzed statistically by the Mann-Whitney method.

[5] = tested on: anaphylactic release of histamine, guinea-pig lung sections; experiment: inhibition of the anaphylactic release of histamine (proper effect); type: cell-based, Dunkin-Hartley guinea-pigs; details: Cavia porcellus, in vitro, read-out: Minimum inhibitory dose (MID)
Description: as §1

[6] = tested on: plantar edema induced by immune complexes; experiment: "reverse passive Arthus" (RPA) test, anti-inflammatory and anti-edema activity; type: in vivo, Sprague-Dawley rat; details: Rattus norvegicus, intravenous
Description: The reaction between a soluble antigen and antibodies in the organism may lead to an acute inflammatory reaction accompanied by release of histamine, modification of vascular permeability and formation of a localized edema. […] To this end, the Arthus reaction is induced by subplantar administration of 0.1 ml of heterologous antivalbumin reaginic serum into the right hind paw and by simultaneous intravenous injection of 1 ml/kg ovalbumin (25 mg/ml). The compound to be tested is administered intravenously 30 seconds before induction of the Arthus reaction, in a least 3 different doses. A group of 6 rats is used per dose of compound to be tested. The volume of the paw is measured by plethysmometry before the Arthus reaction and 3 to 5 hours after induction of the Arthus reaction, both in the control animals and in the treated animals. The effect of a compound on the reduction in the edema for each dose and at each measurement time (3 hours and 5 hours) is expressed in % of the edema observed in the control animals. The doses of the compounds (ID30 in μmole/kg) which inhibit by 30%, on average over all the animals, the volume of the edema observed in the control animals are given in Table VII below.

[7] = 3 hours after induction of the Arthus reaction, read-out: Dose (ID30), 3 hours
[8] = 5 hours after induction of the Arthus reaction, read-out: Dose (ID30), 5 hours
[9] = 4 hours, 1.0 mg/kg i.p. + 0.5 mg scopolamine
[10] = 24 hours, 1.0 mg/kg i.p. + 0.5 mg scopolamine
[11] = 28 hours, 1.0 mg/kg i.p. + 0.5 mg scopolamine
[12] = time 0, 1.0 mg/kg i.p. + 0.5 mg scopolamine
[13] = 4 hours, 2.8 mg/kg i.p. + 0.5 mg scopolamine
[14] = 24 hours, 2.8 mg/kg i.p. + 0.5 mg scopolamine
[15] = 28 hours, 2.8 mg/kg i.p. + 0.5 mg scopolamine
[16] = time 0, 2.8 mg/kg i.p. + 0.5 mg scopolamine

| SMILES | Minimum potentiating dose (MPD) [1] [µmol/L] | activity at 1 µM (PMN granulocytes) [%] | ED50 [2] [µmol/kg] | Lethal dose (toxicity, Irwin's test) [mg/kg] | ED50 [3] [µmol/kg] | minimal effective concentration [5] [µM] | ED30 [6, 7] [µmol/kg] | ED30 [6, 8] [µmol/kg] | Period of remaining on the mat, group 4 [4, 9] [s] | Period of remaining on the mat, group 4 [4, 10] [s] | Period of remaining on the mat, group 4 [4, 11] [s] | Period of remaining on the mat, group 4 [4, 12] [s] | Period of remaining on the mat, group 4 [4, 13] [s] | Period of remaining on the mat, group 4 [4, 14] [s] | Period of remaining on the mat, group 4 [4, 15] [s] | Period of remaining on the mat, group 4 [4, 16] [s] | also measured |
| --- | --- | --- | --- | --- | --- | --- | --- | --- | --- | --- | --- | --- | --- | --- | --- | --- | --- |
| CCCc1nc(NC2CC2)nc(N2CCOCC2)n1 [Compound 1, 2-Cyclopropylamino-4-morpholino-6-n-propyl-1,3,5-triazine] | 0.32 | 47 | 0.01 | 898 | 0.01 | 0.1 | 2 | 2 | – | – | – | – | – | – | – | – | Period of remaining on the mat, group 4 ([4]; 4 hours, 3.0 mg/kg i.p. + 0.5 mg scopolamine): 42.8 s; Period of remaining on the mat, group 4 ([4]; 24 hours, 3.0 mg/kg i.p. + 0.5 mg scopolamine): 77.2 s; Period of remaining on the mat, group 4 ([4]; 28 hours, 3.0 mg/kg i.p. + 0.5 mg scopolamine): 114.6 s; Period of remaining on the mat, group 4 ([4]; time 0, 3.0 mg/kg i.p. + 0.5 mg scopolamine): 19.2 s |
| CCc1nc(NC2CC2)nc(N2CCOCC2)n1 [Compound 2] | 3.2 | 68 | 0.3 | 285 | 0.5 | 1 | 2.3 | 0.7 | 18.9 | 24.3 | 36.5 | 7.9 | – | – | – | – | – |
| C1CN(c2nc(NC3CC3)nc(C3CC3)n2)CCO1.Cl [Compound 3, 2-cyclopropyl-4-cyclopropylamino-6-morpholino-1,3,5-triazine hydrochloride] | 0.32 | 39 | 0.03 | 297.8 | 0.1 | 0.032 | 0.8 | 0.4 | 35.5 | 105.0 | 121.0 | 6.5 | – | – | – | – | – |
| C1CC(c2nc(NC3CC3)nc(N3CCOCC3)n2)C1 [Compound 4, 2-cyclobutyl-4-cyclopropylamino-6-morpholino-1,3,5-triazine] | 0.1 | 45 | 0.004 | 165 | 0.03 | 0.32 | 9 | 10 | – | – | – | – | 44.5 | 91.5 | 106.6 | 12.3 | – |
| CCCc1nc(NC2CC2)nc(N2CCC(O)CC2)n1 [Compound 5] | 3.2 | 74 | 0.06 | 277.4 | 0.1 | 0.32 | 3.1 | 27 | – | – | – | – | 34.2 | 35.9 | 73.3 | 14.5 | – |
| CCCc1nc(NC2CC2)nc(N(CCO)CCO)n1 [Compound 6] | 1.0 | 55 | 0.1 | 635.6 | 0.1 | 1 | 12 | 9 | – | – | – | – | – | – | – | – | Period of remaining on the mat, group 4 ([4]; 4 hours, […] i.p. + 0.5 mg scopolamine): 11.7 s; Period of remaining on the mat, group 4 ([4]; 24 hours, […] i.p. + 0.5 mg scopolamine): 24.8 s; Period of remaining on the mat, group 4 ([4]; 28 hours, […] i.p. + 0.5 mg scopolamine): 28.7 s; Period of remaining on the mat, group 4 ([4]; time 0, […] i.p. + 0.5 mg scopolamine): 5.3 s |
| OCCN(CCO)c1nc(NC2CC2)nc(C2CC2)n1 [Compound 7] | 1.0 | 54 | 0.2 | 279.3 | 0.4 | 0.32 | 7.7 | 11 | – | – | – | – | 34.5 | 94.0 | 133.0 | 9.8 | – |
| CCCc1nc(NC2CC2)nc(N2CC3CCC(C2)O3)n1 [Compound 11] | 0.32 | 44 | 0.1 | 325.8 | 0.1 | 1 | 0.5 | 0.4 | – | – | – | – | – | – | – | – | Period of remaining on the mat, group 4 ([4]; 4 hours, 3.3 mg/kg i.p. + 0.5 mg scopolamine): 21.4 s; Period of remaining on the mat, group 4 ([4]; 24 hours, 3.3 mg/kg i.p. + 0.5 mg scopolamine): 58.6 s; Period of remaining on the mat, group 4 ([4]; 28 hours, 3.3 mg/kg i.p. + 0.5 mg scopolamine): 93.2 s; Period of remaining on the mat, group 4 ([4]; time 0, 3.3 mg/kg i.p. + 0.5 mg scopolamine): 10.7 s |
| CC(C)c1nc(NC2CC2)nc(N2CC3CCC(C2)O3)n1 [Compound 12] | 0.1 | 36 | 0.04 | 325.8 | 0.06 | 0.1 | 2.5 | 3 | 18.0 | 51.1 | 94.5 | 3.6 | – | – | – | – | – |
